Measurements published in patent US8287918B2, “Medicament for treating lung cancer” (Dainippon Sumitomo Pharma Co., Ltd., priority 2001, dated 2012).
Structures can show the parent of a compound that is named as a salt. Where two headings read alike, the source gives them in different places.

What was measured:
[1] = system: Human small cell lung cancer LX-1 cell strain; experiment: Antitumor activity against subcutaneously transplanted LX-1 tumor in nude mice; type: in vivo; details: single agent at maximum tolerated dose (amrubicin hydrochloride 25 mg/kg; cisplatin 10 mg/kg), single intravenous administration, measured for 23 days
Experimental: Human small cell lung cancer LX-1 cell strain was subcutaneously transplanted to nude mice (80 animals) at 5 weeks of age. After 15 days from the tumor transplantation, 36 animals having a tumor volume of about 200 to 500 mm^3 were allotted to 6 groups consisting of 6 animals per group. On the same day, the animals received intravenous administration, respectively, of physiological saline for “vehicle group”, the maximum tolerated dose of amrubicin hydrochloride (25 mg/kg) for “an amrubicin hydrochloride alone administration group”, the maximum tolerated dose of cisplatin (10 mg/kg) for “cisplatin alone administration group”, 0.5 times of the maximum tolerated dose of amrubicin hydrochloride and 0.5 times of the maximum tolerated dose of cisplatin for “combined administration group (0.5×MTD)”, 0.8 times of the maximum tolerated dose of amrubicin hydrochloride and 0.8 times of the maximum tolerated dose of cisplatin for “combined administration group (0.8×MTD)”, the maximum tolerated dose of amrubicin hydrochloride and the maximum tolerated dose of cisplatin for “combined administration group (1×MTD)”. Thereafter, tumor volume and body weight of the mice were measured for 23 days. […]
The minimum T/C % was calculated as follows: […]

[2] = humans, cited from earlier work
[3] = rabbit chronic experimental model; Invest. New Drug, 15, 219-225 (1997); cited from earlier work
[4] = system: tumor cells; details: Cancer Chemothr. Pharmacol., 30, 51-57 (1992); cited from earlier work

In the case of `CC(=O)[C@]1(N)Cc2c(O)c3c(c(O)c2[C@@H](OC2CC(O)C(O)CO2)C1)C(=O)c1ccccc1C3=O` (stereo partly shown) [amrubicin hydrochloride], the “Minimum T/C %” value [1] is listed as 55%, the maximum tolerated dose ([2]; administration in 3 continuous days) is listed as 50 mg/m^2 per day and the maximum tolerated dose ([2]; once a day single dose) is listed as 130 mg/m^2.
For `CC(=O)[C@]1(N)Cc2c(O)c3c(c(O)c2[C@@H](O[C@H]2C[C@H](O)[C@H](O)CO2)C1)C(=O)c1ccccc1C3=O` [amrubicin, (+)-(7S,9S)-9-acetyl-9-amino-7-[(2-deoxy-β-D-erythro-pentopyranosyl)oxy]-7,8,9,10-tetrahydro-6,11-dihydroxy-5,12-naphthacenedione], the “cardiac toxicity compared with doxorubicin” value [3] is given as “far weaker than doxorubicin”.
For `CC(O)[C@]1(N)Cc2c(O)c3c(c(O)c2[C@@H](O[C@H]2C[C@H](O)[C@H](O)CO2)C1)C(=O)c1ccccc1C3=O` (stereo partly shown) [amrubicinol], the “inhibitory activity against growth of tumor cells compared with amrubicin” value [4] is listed as “considerably stronger”.
For `N.N.[Cl][Pt][Cl]` [cisplatin, cis-diammin dichloroplatinum], the “Minimum T/C %” value [1] is given as 68% and the maximum tolerated dose [2] is given as 90 mg/m^2.
